Results on twelve compounds are retold here after PubChem BioAssay (NCI).

Some test systems named below: SK-MEL-5 melanoma; HOP-62 NSCLC; MDA-MB-231 breast; COLO 205 colon; SK-MEL-28 melanoma; MALME-3M melanoma; SN12C renal; CAKI-1 renal; SK-OV-3 ovarian; NCI-H460 lung; OVCAR-3 ovarian; MDA-N; TK-10 renal; HCC-2998 colon; RPMI-8226 leukemia; UO-31 renal; SF-295 CNS; MCF7 breast; A498 renal.
Common to all, as to experiment: NCI anticancer screen, dose series, 48 h

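Interpolation was linear, between the two tested concentrations surrounding the appropriate level; five concentrations were tested over 48 hours in 96-well plates. The concentration for 50% growth inhibition is given as GI50. TGI: total growth inhibition.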

With `O=S(=O)(O)c1cc(N=Nc2cc(S(=O)(=O)O)c3ccccc3c2O)ccc1/C=C/c1ccc(N=Nc2cc(S(=O)(=O)O)c3ccccc3c2O)cc1S(=O)(=O)O`, the TGI with SK-MEL-5 melanoma was 239 µM; with HOP-62 NSCLC, greater than 1000 µM; with MDA-MB-231 breast, 82.1 µM; in the test on COLO 205 colon, greater than 380 µM; in the test on SK-MEL-28 melanoma, greater than 1000 µM; in the test with MALME-3M melanoma it was greater than 494 µM. Further, the TGI in the test on SN12C renal was greater than 1000 µM; with CAKI-1 renal, greater than 756 µM; in the test on SK-OV-3 ovarian, greater than 876 µM; in the test with NCI-H460 lung, greater than 881 µM; in the test with OVCAR-3 ovarian, greater than 1000 µM; in the test with MDA-N, 359 µM. Besides, the TGI in the test with TK-10 renal was 220 µM; in the test with HCC-2998 colon, greater than 1000 µM; in the test on RPMI-8226 leukemia it was greater than 311 µM; in the test on UO-31 renal, greater than 527 µM; in the test with SF-295 CNS it was greater than 731 µM; with MCF7 breast it was greater than 1000 µM. For the same compound, the GI50 in the test on HCC-2998 colon was greater than 1 mM.
In the case of `CCc1cccc(CC)c1Nc1nc2c(s1)C(=O)c1ccccc1C2=O`, the TGI in the test with SK-MEL-5 melanoma is 47.9 µM; with HOP-62 NSCLC, 30.2 µM; in the test on MDA-MB-231 breast it was 41.4 µM; in the test on COLO 205 colon, 49.6 µM; with SK-MEL-28 melanoma it was 35.9 µM; in the test with MALME-3M melanoma, 31.5 µM. For the same compound, the TGI turned out to be 47.9 µM with SN12C renal; 30 µM with CAKI-1 renal; 89.8 µM with SK-OV-3 ovarian; 34.9 µM in the test with NCI-H460 lung; 34 µM in the test on OVCAR-3 ovarian; 32.3 µM with MDA-N. For the same compound, the TGI was 36.6 µM in the test on TK-10 renal; 35.6 µM in the test on HCC-2998 colon; greater than 100 µM in the test with RPMI-8226 leukemia; 29.2 µM in the test with UO-31 renal; 27.8 µM with SF-295 CNS; 52 µM with MCF7 breast.
With `Cc1ccc(C(=O)OC(C)C)cc1N=NN(C)C`, the TGI with SK-MEL-5 melanoma, in the test on HOP-62 NSCLC, in the test on MDA-MB-231 breast, with COLO 205 colon, in the test with SK-MEL-28 melanoma and in the test with MALME-3M melanoma was greater than 100 µM each time. Besides, the TGI in the test with SN12C renal, in the test on CAKI-1 renal, with SK-OV-3 ovarian, in the test on NCI-H460 lung, in the test on OVCAR-3 ovarian and in the test on MDA-N was greater than 100 µM in each case. Besides, the TGI in the test on TK-10 renal, with HCC-2998 colon, with RPMI-8226 leukemia, in the test on UO-31 renal, with SF-295 CNS and in the test with MCF7 breast was greater than 100 µM in each case.
For `COc1cc(/C=C/C=C2\CCC/C(=C\C=C\c3ccc(O)c(OC)c3)C2=O)ccc1O`, the TGI was 27.2 µM in the test with SK-MEL-5 melanoma; 52.7 µM with HOP-62 NSCLC; greater than 100 µM in the test on MDA-MB-231 breast; 71.5 µM with COLO 205 colon; 30.2 µM with SK-MEL-28 melanoma; 44.8 µM with MALME-3M melanoma. In addition, the TGI with SN12C renal was 65.8 µM; in the test on CAKI-1 renal, 34.2 µM; in the test with SK-OV-3 ovarian, greater than 100 µM; in the test on NCI-H460 lung, 57.7 µM; in the test with OVCAR-3 ovarian, greater than 100 µM; in the test with MDA-N, greater than 100 µM. Further, the TGI is 52 µM in the test with TK-10 renal; greater than 100 µM in the test with HCC-2998 colon; 28.5 µM in the test on RPMI-8226 leukemia; 39.5 µM in the test with UO-31 renal; 27 µM in the test with SF-295 CNS; 36 µM with MCF7 breast.
As to `COCOc1cc(OC)c(Br)cc1C/C(=N/O)C(=O)OC`, the TGI in the test on SK-MEL-5 melanoma, in the test on HOP-62 NSCLC, with MDA-MB-231 breast, in the test with COLO 205 colon, in the test with SK-MEL-28 melanoma and with MALME-3M melanoma was greater than 100 µM each time. For the same compound, the TGI in the test with SN12C renal, with CAKI-1 renal, in the test with SK-OV-3 ovarian, with NCI-H460 lung, in the test with OVCAR-3 ovarian and in the test with MDA-N was greater than 100 µM throughout. Moreover, the TGI with TK-10 renal, with HCC-2998 colon, with UO-31 renal, in the test on SF-295 CNS and with MCF7 breast was greater than 100 µM each time.
Turning to `CC(=O)/C(N=Nc1ccc(-n2c(C)nc3ccc(Br)cc3c2=O)cc1)=C(/C)O`, the TGI in the test on SK-MEL-5 melanoma, in the test with HOP-62 NSCLC, in the test on MDA-MB-231 breast, in the test with COLO 205 colon, with SK-MEL-28 melanoma and with SN12C renal was greater than 100 µM throughout. For the same compound, the TGI with A498 renal, with CAKI-1 renal, with SK-OV-3 ovarian, in the test with NCI-H460 lung, in the test with OVCAR-3 ovarian and in the test on MDA-N was greater than 100 µM each time. In addition, the TGI with TK-10 renal, in the test on RPMI-8226 leukemia, with UO-31 renal, in the test with SF-295 CNS and with MCF7 breast was greater than 100 µM each time.
As to `CC(=O)/C=C(/C=N/O)c1ccccc1`, the TGI with SK-MEL-5 melanoma, in the test on HOP-62 NSCLC, in the test on MDA-MB-231 breast, in the test with COLO 205 colon, in the test with SK-MEL-28 melanoma and in the test on MALME-3M melanoma was greater than 100 µM each time. For the same compound, the TGI in the test with SN12C renal, in the test with CAKI-1 renal, with SK-OV-3 ovarian, in the test on NCI-H460 lung, with OVCAR-3 ovarian and with MDA-N was greater than 100 µM in each case. The TGI in the test on TK-10 renal, with HCC-2998 colon, in the test with RPMI-8226 leukemia, with UO-31 renal, in the test with SF-295 CNS and with MCF7 breast was greater than 100 µM throughout.
For `c1ccc(CN2CCCN3CCN(CCCN(Cc4ccccc4)CC3)CC2)cc1`, the TGI was 36.1 µM in the test with SK-MEL-5 melanoma; greater than 100 µM with HOP-62 NSCLC; greater than 100 µM in the test with MDA-MB-231 breast; 57.8 µM in the test on COLO 205 colon; greater than 100 µM with SK-MEL-28 melanoma; greater than 100 µM with SN12C renal. The TGI in the test on A498 renal, in the test with CAKI-1 renal, with SK-OV-3 ovarian, in the test on NCI-H460 lung, in the test with OVCAR-3 ovarian and in the test with MDA-N was greater than 100 µM throughout. Further, the TGI in the test on TK-10 renal, in the test with RPMI-8226 leukemia, with UO-31 renal, in the test on SF-295 CNS and in the test with MCF7 breast was greater than 100 µM each time.
Regarding `Cc1cc(C)c(S(=O)(=O)N(CCCCCCN)OCCCN)c(C)c1`, the TGI in the test with SK-MEL-5 melanoma amounted to 37.6 µM; with HOP-62 NSCLC, 46 µM; with MDA-MB-231 breast, 24.4 µM; with COLO 205 colon it was 32.3 µM; in the test on SK-MEL-28 melanoma, 36.1 µM; in the test with MALME-3M melanoma, 24 µM. Moreover, the TGI with SN12C renal amounted to 37.2 µM; in the test on SK-OV-3 ovarian, 34 µM; in the test with NCI-H460 lung, 31.6 µM; in the test on OVCAR-3 ovarian, 46 µM; in the test with MDA-N it was 32.2 µM; with TK-10 renal it was 29.4 µM. Besides, the TGI in the test on HCC-2998 colon is 32.6 µM; in the test on RPMI-8226 leukemia, greater than 100 µM; in the test with UO-31 renal, 43.2 µM; with SF-295 CNS, 34.8 µM; with MCF7 breast it was 37.3 µM.
On to `Brc1cccc(Nc2ncnc3sc4c(c23)CCC(Nc2cccc(Br)c2)C4)c1` (centres undefined), for which the TGI in the test on SK-MEL-5 melanoma, in the test with HOP-62 NSCLC, in the test on MDA-MB-231 breast, in the test on COLO 205 colon, in the test on SK-MEL-28 melanoma and in the test with MALME-3M melanoma was greater than 100 µM throughout. Also, the TGI with SN12C renal, with CAKI-1 renal, in the test on SK-OV-3 ovarian, in the test with NCI-H460 lung, in the test on OVCAR-3 ovarian and in the test with MDA-N was greater than 100 µM each time. Moreover, the TGI with TK-10 renal, in the test with HCC-2998 colon, with UO-31 renal, with SF-295 CNS and with MCF7 breast was greater than 100 µM each time.
Turning to `CC(C)Oc1c(C2(c3ccccc3O)SCCCS2)c(=O)c1=O`, the TGI with SK-MEL-5 melanoma, in the test with HOP-62 NSCLC, in the test with MDA-MB-231 breast, in the test with COLO 205 colon, in the test with SK-MEL-28 melanoma and in the test on SN12C renal was greater than 100 µM throughout. The TGI with A498 renal, in the test on CAKI-1 renal, in the test with SK-OV-3 ovarian, in the test on NCI-H460 lung, in the test on OVCAR-3 ovarian and with MDA-N was greater than 100 µM throughout. In addition, the TGI in the test on TK-10 renal, in the test on UO-31 renal, with SF-295 CNS and in the test with MCF7 breast was greater than 100 µM throughout.
With `CN(C)CCn1c(=O)oc2cc(C(=O)CN3CCOCC3)ccc21`, the TGI in the test with SK-MEL-5 melanoma, in the test on HOP-62 NSCLC, in the test with MDA-MB-231 breast, in the test with COLO 205 colon, in the test with SK-MEL-28 melanoma and in the test with MALME-3M melanoma was greater than 100 µM each time. In addition, the TGI in the test on SN12C renal, in the test with CAKI-1 renal, in the test on SK-OV-3 ovarian, in the test on NCI-H460 lung, in the test on OVCAR-3 ovarian and in the test with MDA-N was greater than 100 µM in each case. Moreover, the TGI in the test on TK-10 renal, in the test on RPMI-8226 leukemia, in the test with UO-31 renal, in the test with SF-295 CNS and in the test with MCF7 breast was greater than 100 µM in each case.
